According to US10501479B2, “Benzenesulfonyl-asymmetric ureas and medical uses thereof” (HELSINN HEALTHCARE SA, priority 2016, dated 2019):
Where two headings read alike, the source gives them in different places.

Key:
[1] = biological target: T1, recombinant human ghrelin receptor (HEK293/GRLN) (Homo sapiens, UniProt Q92847); experiment: Ghrelin inverse agonist potency (EC50) with IP-1 (IP-One HTRF) assay; format: cell-based; conditions: IP-1 assay
T1 construct: expressed in transfected cells
How it was run: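 IP-1 accumulation was measured by HTRF (IP1-d2/Tb-cryptate, 620/665 nm read after 1 hour at room temperature) following 1 hour of compound treatment at 37° C. Cells were HEK293 stably expressing human ghrelin receptor, plated a day earlier on Matrigel. Inverse agonist potency was reported as EC50.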

[2] = biological target: T2, GHSR-1a (HEK293/GHSR1a cell line) (Homo sapiens, UniProt Q92847); experiment: Ghrelin agonist potency (EC50) with calcium FLIPR assay; format: cell-based
T2 construct: expressed in transfected cells; host or cells: HEK293/GHSR1a cell line
T2 sequence (Q92847 whole entry): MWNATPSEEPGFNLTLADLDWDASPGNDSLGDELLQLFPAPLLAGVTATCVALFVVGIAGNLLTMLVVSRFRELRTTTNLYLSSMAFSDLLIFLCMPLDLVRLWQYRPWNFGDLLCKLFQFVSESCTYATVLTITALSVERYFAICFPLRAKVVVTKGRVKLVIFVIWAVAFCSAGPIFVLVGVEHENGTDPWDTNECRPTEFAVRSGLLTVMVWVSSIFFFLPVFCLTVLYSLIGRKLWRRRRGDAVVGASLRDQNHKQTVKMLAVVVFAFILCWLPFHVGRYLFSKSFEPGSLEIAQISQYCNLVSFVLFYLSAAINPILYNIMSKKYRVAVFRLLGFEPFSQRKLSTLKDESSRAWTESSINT
How it was run: (§1)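 The cells were plated a day ahead and loaded with a calcium-sensitive dye. Test compound was then added and incubated 15 min, followed by ghrelin. Antagonist potency was calculated from inhibition of the response to 10 nM ghrelin, and agonist potency from the calcium rise caused by compound alone.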

[3] = biological target: T2, GHSR-1a (HEK293/GHSR1a cell line); experiment: Ghrelin antagonist potency (IC50) with calcium FLIPR assay, ghrelin 10 nM; format: cell-based
How it was run: as §1

[4] = Metabolic stability in human liver microsomes; format: in vitro ADME
How it was run: (§2)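 First, microsomes and compound are preincubated 5 min at 37 °C in pH 7.4 phosphate buffer. Next, an NADPH regenerating system starts the reaction. Then aliquots are quenched cold at 10, 30 and 90 min, centrifuged and analysed by LC-MS/MS.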

[5] = Metabolic stability in mouse liver microsomes; format: in vitro ADME
How it was run: as §2

[6] = HEK293/GRLN, read-out: Activity EC50 (ghrelin inverse agonist potency)
[7] = HEK293/GHSR1a, read-out: Activity EC50/EMax: EC50 (ghrelin agonist potency)
[8] = HEK293/GHSR1a, ghrelin 10 nM, read-out: Activity IC50 (ghrelin antagonist potency)
[9] = ghrelin inverse agonist potency, read-out: Activity EC50
[10] = ghrelin agonist potency, read-out: Activity EC50/EMax
[11] = ghrelin antagonist potency, read-out: Activity IC50

T1 sequence (Q92847 whole entry): as above

Structure (SMILES)	EC50 [1, 6] [nM]	EC50 [2, 7] [nM]	IC50 [3, 8] [nM]	Metabolic Stability Study H = human [4] [µL/min/mg]	Metabolic Stability Study M = mouse [5] [µL/min/mg]	EC50 [1, 9] [nM]	EC50 [2, 10] [nM]	IC50 [3, 11] [nM]
CC1Cc2cc(CS(=O)(=O)c3ccc(NC(=O)NC(C)c4ccccc4)cc3)ccc2CN1 (stereo not drawn) [H1406, 1-(4-(((3-methyl-1,2,3,4-tetrahydroisoquinolin-6-yl)methyl)sulfonyl)phenyl)-3-(1-phenylethyl)urea]	7.92	> 30000	85.5	15	22.2	–	–	–
CC(NC(=O)Nc1ccc(S(=O)(=O)Cc2ccc3c(c2)CC(C)N(C)C3)cc1)c1ccccc1 (stereo not drawn) [H1407, 1-(4-(((2,3-dimethyl-1,2,3,4-tetrahydroisoquinolin-6-yl)methyl)sulfonyl)phenyl)-3-(1-phenylethyl)urea]	1.45	> 30000	12.7	144.4	84.1	–	–	–
CC(NC(=O)Nc1ccc(S(=O)(=O)Cc2ccc3c(c2F)CNC3)cc1)c1c(F)cccc1F (stereo not drawn) [H1410]	13.2	> 30000	32	73.3	358.6	–	–	–
COc1cc(S(=O)(=O)Cc2ccc3c(c2)CNC3)ccc1NC(=O)NC(C)c1c(F)cccc1F (stereo not drawn) [H1412, 1-(1-(2,6-difluorophenyl)ethyl)-3-(4-((isoindolin-5-ylmethyl)sulfonyl)-2-methoxyphenyl)urea]	4.3	> 30000	15.7	22.5	122.4	–	–	–
COc1cc(S(=O)(=O)Cc2ccc3c(c2)CN(C)C3)ccc1NC(=O)NC(C)c1cccc2ccccc12 (stereo not drawn) [H1425, 1-(2-methoxy-4-(((2-methylisoindolin-5-yl)methyl)sulfonyl)phenyl)-3-(1-(naphthalen-1-yl)ethyl)urea]	1.8	> 30000	8.1	310.0	141.5	–	–	–
COc1cc(S(=O)(=O)Cc2ccc3c(c2)CN(C)C3)ccc1NC(=O)NC(C)c1ccccc1F (stereo not drawn) [H1426, 1-(1-(2-fluorophenyl)ethyl)-3-(2-methoxy-4-(((2-methylisoindolin-5-yl)methyl)sulfonyl)phenyl)urea]	3.4	> 30000	52.9	77.3	80.6	–	–	–
COc1cc(S(=O)(=O)Cc2ccc3c(c2)CN(C)C3)ccc1NC(=O)NC(C)c1cccc(Cl)c1Cl (stereo not drawn) [H1427, 1-(1-(2,3-dichlorophenyl)ethyl)-3-(2-methoxy-4-(((2-methylisoindolin-5-yl)methyl)sulfonyl)phenyl)urea]	0.7	> 30000	3.8	58.8	82.1	–	–	–
COc1cc(S(=O)(=O)Cc2ccc3c(c2)CCN(C)C3)ccc1NC(=O)NC(C)c1cccc(Cl)c1Cl (stereo not drawn) [H1428, 1-(1-(2,3-dichlorophenyl)ethyl)-3-(2-methoxy-4-(((2-methyl-1,2,3,4-tetrahydroisoquinolin-6-yl)methyl)sulfonyl)phenyl)urea]	0.5	> 30000	3.3	69.3	194.8	–	–	–
CC(NC(=O)Nc1ccc(S(=O)(=O)Cc2ccc3c(c2)CN(C)C3)cc1)c1c(F)cccc1F (stereo not drawn) [H1429, 1-(1-(2,6-difluorophenyl)ethyl)-3-(4-(((2-methylisoindolin-5-yl)methyl)sulfonyl)phenyl)urea]	7.31	> 30000	160	65.2	63.6	–	–	–
COc1cc(S(=O)(=O)Cc2ccc3c(c2)CC(C)N(C)C3)ccc1NC(=O)NC(C)c1cccc(Cl)c1Cl (stereo not drawn) [H1431, 1-(1-(2,3-dichlorophenyl)ethyl)-3-(4-(((2,3-dimethyl-1,2,3,4-tetrahydroisoquinolin-6-yl)methyl)sulfonyl)-2-methoxyphenyl)urea]	0.657	> 30000	4.54	99.7	135.7	–	–	–
CC(NC(=O)Nc1ccc(S(=O)(=O)Cc2ccc3c(c2)CNC3)cc1)c1cc(F)cc(F)c1 (stereo not drawn) [H1445, 1-(1-(3,5-difluorophenyl)ethyl)-3-(4-((isoindolin-5-ylmethyl)sulfonyl)phenyl)urea]	3.9	> 30000	23.8	19.4	17.3	–	–	–
CC(NC(=O)Nc1ccc(S(=O)(=O)Cc2ccc3c(c2)CN(C)C3)cc1)c1cc(F)cc(F)c1 (stereo not drawn) [H1446, 1-(1-(3,5-difluorophenyl)ethyl)-3-(4-(((2-methylisoindolin-5-yl)methyl)sulfonyl)phenyl)urea]	9	> 30000	96.5	177.6	58.5	–	–	–
Cc1cc(S(=O)(=O)Cc2ccc3c(c2)CN(C)C3)ccc1NC(=O)NC(C)c1ccccc1 (stereo not drawn) [H1447, 1-(2-methyl-4-(((2-methylisoindolin-5-yl)methyl)sulfonyl)phenyl)-3-(1-phenylethyl)urea]	6.5	> 30000	100	72.5	42.6	–	–	–
COc1cccc(F)c1C(C)NC(=O)Nc1ccc(S(=O)(=O)Cc2ccc3c(c2)CN(C)C3)cc1 (stereo not drawn) [H1454, 1-(1-(2-fluoro-6-methoxyphenyl)ethyl)-3-(4-(((2-methylisoindolin-5-yl)methyl)sulfonyl)phenyl)urea]	6.1	> 30000	31.8	259.9	193.3	–	–	–
COc1cccc(F)c1C(C)NC(=O)Nc1ccc(S(=O)(=O)Cc2ccc3c(c2)CNC3)cc1 (stereo not drawn) [H1455, 1-(1-(2-fluoro-6-methoxyphenyl)ethyl)-3-(4-((isoindolin-5-ylmethyl)sulfonyl)phenyl)urea]	5.2	> 30000	42.5	55.5	56.9	–	–	–
CC(NC(=O)Nc1ccc(S(=O)(=O)Cc2ccc3c(c2)CN(C)C3)cc1Cl)c1ccccc1 (stereo not drawn) [H1456, 1-(2-chloro-4-(((2-methylisoindolin-5-yl)methyl)sulfonyl)phenyl)-3-(1-phenylethyl)urea]	–	–	–	160.6	137.8	6.2	> 30000	109
COC(=O)c1cc(S(=O)(=O)Cc2ccc3c(c2)CNC3)ccc1NC(=O)NC(C)c1ccccc1 (stereo not drawn) [H1459, methyl 5-((isoindolin-5-ylmethyl)sulfonyl)-2-(3-(1-phenylethyl)ureido)benzoate]	–	–	–	53.7	49.3	8.4	> 30000	11.5
COc1cc(NC(=O)NC(C)c2ccccc2)ccc1S(=O)(=O)Cc1ccc2c(c1)CN(C)C2 (stereo not drawn) [H1462, 1-(3-methoxy-4-(((2-methylisoindolin-5-yl)methyl)sulfonyl)phenyl)-3-(1-phenylethyl)urea]	–	–	–	76.1	15.8	6.24	> 30000	13.8
COc1cc(S(=O)(=O)Cc2ccc3c(c2)CCNC3)ccc1NC(=O)N[C@@H](C)c1cccc(Cl)c1Cl [H1482, (S)-1-(1-(2,3-dichlorophenyl)ethyl)-3-(2-methoxy-4-(((1,2,3,4-tetrahydroisoquinolin-6-yl)methyl)sulfonyl)phenyl)urea]	–	–	–	< 10	12.5	0.4	> 30000	0.282
CC(NC(=O)Nc1ccc(S(=O)(=O)Cc2ccc3c(c2)CNC3)cc1C1CC1)c1ccccc1 (stereo not drawn) [H1484, 1-(2-cyclopropyl-4-((isoindolin-5-ylmethyl)sulfonyl)phenyl)-3-(1-phenylethyl)urea]	–	–	–	116.7	149.3	7.1	> 30000	21.7
CC(NC(=O)Nc1ccc(S(=O)(=O)Cc2ccc3c(c2)CN(C)C3)c(O)c1)c1ccccc1.O=C(O)C(F)(F)F (stereo not drawn) [H1487, 1-(3-hydroxy-4-(((2-methylisoindolin-5-yl)methyl)sulfonyl)phenyl)-3-(1-phenylethyl)urea]	–	–	–	26.1	16.9	5.7	> 30000	18.7
